Results as given in patent publication US4855415A, “Glucosylmoranoline derivatives” (Nippon Shinyaku Co., Ltd., priority 1986, dated 1989).
pIC50: −log10 of the molar value. Values after ≈ are worked out from the molar mass of the structure shown. Blank lines part the entries; values can stand above or below the compound they belong to.

What was measured:
mice = experiment: oral toxicity in mice; type: in vivo; details: orally, 5 g/kg
Description: The toxicity of the compounds (I) was tested by giving the compound of Example 1 orally to mice (5 g/kg) but there were no deaths.

sucrase = biological target: T1, sucrase (Oryctolagus cuniculus, UniProt P07768); experiment: alpha-glucosidase inhibiting action in vitro: sucrase; type: biochemical, rabbit; details: 50 mM sucrose, pH 7.0, 37° C., 30 minutes; for pIC50: IC50, Sucrase, crudely purified enzyme from rabbit small intestine mucosa, average of three measurements (* four)
T1 construct: from tissue; host or cells: rabbit small intestine mucosa, crudely purified by a method of Takesue, 1969
T1 sequence (P07768 1008-1827 limits assumed): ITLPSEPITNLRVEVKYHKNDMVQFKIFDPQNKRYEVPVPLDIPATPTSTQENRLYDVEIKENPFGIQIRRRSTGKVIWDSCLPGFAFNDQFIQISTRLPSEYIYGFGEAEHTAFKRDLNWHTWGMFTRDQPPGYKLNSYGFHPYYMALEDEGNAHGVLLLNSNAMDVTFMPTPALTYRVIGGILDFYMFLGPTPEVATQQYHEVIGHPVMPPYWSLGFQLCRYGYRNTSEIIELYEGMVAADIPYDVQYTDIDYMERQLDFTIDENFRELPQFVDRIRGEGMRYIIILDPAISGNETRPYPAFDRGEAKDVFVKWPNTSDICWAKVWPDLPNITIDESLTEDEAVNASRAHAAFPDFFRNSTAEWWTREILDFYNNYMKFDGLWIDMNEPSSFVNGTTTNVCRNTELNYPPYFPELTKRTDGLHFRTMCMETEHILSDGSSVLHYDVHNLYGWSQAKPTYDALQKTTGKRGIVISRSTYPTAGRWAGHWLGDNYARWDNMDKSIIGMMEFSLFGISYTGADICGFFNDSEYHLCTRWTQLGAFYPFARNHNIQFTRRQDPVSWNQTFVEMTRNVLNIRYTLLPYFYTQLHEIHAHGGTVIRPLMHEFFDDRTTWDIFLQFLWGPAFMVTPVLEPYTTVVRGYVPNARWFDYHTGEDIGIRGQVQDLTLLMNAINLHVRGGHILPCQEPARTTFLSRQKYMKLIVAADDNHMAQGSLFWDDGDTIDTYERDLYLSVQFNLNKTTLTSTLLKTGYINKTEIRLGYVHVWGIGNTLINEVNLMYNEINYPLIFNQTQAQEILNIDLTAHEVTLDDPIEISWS
T1 sequence (P07768 2-1007 partner limits assumed): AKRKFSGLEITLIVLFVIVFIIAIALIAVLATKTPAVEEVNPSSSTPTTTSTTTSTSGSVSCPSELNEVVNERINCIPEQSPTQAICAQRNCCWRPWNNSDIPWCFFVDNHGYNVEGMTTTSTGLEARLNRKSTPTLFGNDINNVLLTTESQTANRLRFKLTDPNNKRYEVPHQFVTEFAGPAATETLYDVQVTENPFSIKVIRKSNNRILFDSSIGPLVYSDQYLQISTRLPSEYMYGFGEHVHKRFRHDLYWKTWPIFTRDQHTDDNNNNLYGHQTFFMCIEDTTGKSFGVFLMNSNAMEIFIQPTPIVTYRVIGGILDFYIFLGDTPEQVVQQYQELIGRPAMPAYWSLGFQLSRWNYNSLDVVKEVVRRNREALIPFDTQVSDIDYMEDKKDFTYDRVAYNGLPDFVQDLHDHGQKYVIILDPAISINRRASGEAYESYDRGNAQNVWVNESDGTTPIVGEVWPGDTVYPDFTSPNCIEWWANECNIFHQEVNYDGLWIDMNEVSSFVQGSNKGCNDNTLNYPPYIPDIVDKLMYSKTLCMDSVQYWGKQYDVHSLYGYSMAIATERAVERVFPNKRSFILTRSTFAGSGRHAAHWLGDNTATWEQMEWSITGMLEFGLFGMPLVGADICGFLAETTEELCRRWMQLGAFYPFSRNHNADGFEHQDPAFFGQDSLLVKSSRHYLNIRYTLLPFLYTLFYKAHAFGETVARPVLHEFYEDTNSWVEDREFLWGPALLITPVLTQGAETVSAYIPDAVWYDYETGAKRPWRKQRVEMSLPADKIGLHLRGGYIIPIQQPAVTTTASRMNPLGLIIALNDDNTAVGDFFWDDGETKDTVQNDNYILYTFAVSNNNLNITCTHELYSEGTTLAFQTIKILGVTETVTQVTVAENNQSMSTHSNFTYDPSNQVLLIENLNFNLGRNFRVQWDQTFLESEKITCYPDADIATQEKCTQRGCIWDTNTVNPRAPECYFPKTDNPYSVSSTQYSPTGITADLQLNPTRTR
Description: (§1) MEASUREMENT OF ALPHA-GLUCOSIDASE INHIBITING ACTION IN VITRO
(§2) The activity of the test compounds in inhibiting sucrase and maltase in vitro using a crudely purified enzyme preparation (purified in accordance with a method of Takesue, 1969) obtained from rabbit small intestine mocosa was carried out as follows.
(§3) To 40 microliters of enzyme solution diluted with 0.4M phosphate buffer (pH 7.0) are added 20 microliters of a solution of a test compound in the same buffer and 140 microliters of a solution of a substrate (50 mM sucrose or 50 mM maltose) in the same buffer and the mixture is allowed to react at 37° C. for 30 minutes. The reaction is then stopped by adding 400 microliters of 3N barium hydroxide and 400 microliters of 5% zinc sulfate solution. The amount of the enzyme that is reacted is determined as the amount of glucose contained in 200 microliters of the supernatant liquid of the reaction solution by adding 3 ml of glucoseoxidase reagent (Bioehringer-Mannheim) followed by reacting at ambient temperature for 30 minutes and measuring the absorbance at 420 nm. The concentration of the compound that provides 50% inhibition (IC50) of sucrase and maltase is calculated by expressing the values (as measured by the above method with five different concentrations) as an inhibitory rate (%) to the control.

[1] = tested on: increase in blood glucose level; experiment: inhibitory action against increase in blood glucose level in rats (oral sucrose load); type: in vivo, SD-Strain rats; details: per os, 1 ml/100 g of sucrose solution (2 g/10 ml) containing 30 mg test compound, 180 minutes after administration
Description: INHIBITORY ACTION AGAINST INCREASE IN BLOOD GLUCOSE LEVEL IN RATS
SD-Strain rats (5 weeks age; male; each group comprising 4 to 5 rats) were fasted overnight and then given 1 ml/100 g body weight of aqueous solution of sucrose (2 g/10 ml) containing 30 mg test compound per os through a stomach tube.
Blood was taken from the tail vein immediately before the administration and at 30, 60, 90, 120 and 180 minutes thereafter and blood glucose levels were measured by a glucose oxidase method (using the assay kit prepared by Boehringer Mannheim).
Based on the values obtained above, a graph was drawn using time as the abscissa and blood glucose level as the ordinate and the area (ΔAUC)under the time-blood glucose increase curve was determined.
A group of rats receiving only water and another group receiving only sucrose were designated as a basal group (group B) and a control group (group C), respectively. Then the inhibitory rate for an increase in ΔAUC 180 minutes after administration of the test compounds (group T) was calculated from the following expression. [formula]

maltase = experiment: alpha-glucosidase inhibiting action in vitro: maltase; type: biochemical, rabbit; details: 50 mM maltose, pH 7.0, 37° C., 30 minutes; for inhibitory rate, Maltase: ** inhibitory rate at 100 μg/ml; for IC50, Maltase: crudely purified enzyme from rabbit small intestine mucosa, average of three measurements (* four)
Description: as §1, §2, §3

Compound: Cc1ccc(CN2C[C@H](O)[C@@H](O)[C@H](O[C@H]3O[C@H](CO)[C@@H](O)[C@H](O)[C@H]3O)[C@H]2CO)cc1 [Example 1, 4-O-alpha-D-Glucopyranosyl-N-(p-methylbenzyl)-moranoline]
deaths (mice): no deaths
pIC50 (sucrase): 4.44
Inhibitory Rate (%) for increase in ΔAUC of blood glucose [1]: 68.6%
inhibitory rate, Maltase (maltase): 23.5%

Compound: CC(C)=CCN1C[C@H](O)[C@@H](O)[C@H](O[C@H]2O[C@H](CO)[C@@H](O)[C@H](O)[C@H]2O)[C@H]1CO [Example 3, 4-O-alpha-D-Glucopyranosyl-N-(3-methylcrotyl)moranoline p-toluensulfonate]
pIC50 (sucrase): 4.36
Inhibitory Rate (%) for increase in ΔAUC of blood glucose [1]: 73.2%
IC50, Maltase (maltase): 248.9 µg/mL (≈ 633 µM)

Compound: OC[C@@H]1[C@@H](O[C@H]2O[C@H](CO)[C@@H](O)[C@H](O)[C@H]2O)[C@H](O)[C@@H](O)CN1Cc1ccc(Br)cc1 [Example 4, 4-O-alpha-D-Glucopyranosyl-N-(p-bromobenzyl)moranoline]
pIC50 (sucrase): 4.69
IC50, Maltase (maltase): 34.2 µg/mL (≈ 69.2 µM)

Compound: CCCCCCN1C[C@H](O)[C@@H](O)[C@H](O[C@H]2O[C@H](CO)[C@@H](O)[C@H](O)[C@H]2O)[C@H]1CO [Example 5, 4-O-alpha-D-Glucopyranosyl-N-hexylmoranoline p-toluenesulfonate]
Inhibitory Rate (%) for increase in ΔAUC of blood glucose [1]: 94.8%

Compound: OC[C@@H]1[C@@H](O[C@H]2O[C@H](CO)[C@@H](O)[C@H](O)[C@H]2O)[C@H](O)[C@@H](O)CN1CCc1ccccc1 [Example 6, 4-O-alpha-D-Glucopyranosyl-N-(beta-phenylethyl)moranoline]
pIC50 (sucrase): 4.14
Inhibitory Rate (%) for increase in ΔAUC of blood glucose [1]: 69.9%
IC50, Maltase (maltase): 192.5 µg/mL (≈ 448 µM)

Compound: COc1ccc(CN2C[C@H](O)[C@@H](O)[C@H](O[C@H]3O[C@H](CO)[C@@H](O)[C@H](O)[C@H]3O)[C@H]2CO)cc1 [Example 8, 4-O-alpha-D-Glucopyranosyl-N-(p-methoxybenzyl)moranoline]
pIC50 (sucrase): 4.25
Inhibitory Rate (%) for increase in ΔAUC of blood glucose [1]: 54.8%
IC50, Maltase (maltase): 173.0 µg/mL (≈ 388 µM)

Compound: OC[C@@H]1[C@@H](O[C@H]2O[C@H](CO)[C@@H](O)[C@H](O)[C@H]2O)[C@H](O)[C@@H](O)CN1CCOc1ccccc1 [Example 9, 4-O-alpha-D-Glucopyranosyl-N-(beta-phenoxyethyl)moranoline]
pIC50 (sucrase): 4.84
Inhibitory Rate (%) for increase in ΔAUC of blood glucose [1]: 64.5%
IC50, Maltase (maltase): 223.6 µg/mL (≈ 502 µM)

inhibition at 100 µg/mL (sucrase; ** inhibitory rate at 100 μg/ml): 21.9%
inhibitory rate, Maltase (maltase): 2.0%
Compound: O=C(O)c1ccc(CN2C[C@H](O)[C@@H](O)[C@H](O[C@H]3O[C@H](CO)[C@@H](O)[C@H](O)[C@H]3O)[C@H]2CO)cc1 [Example 12, 4-O-alpha-D-Glucopyranosyl-N-(4-carboxybenzyl)moranoline p-toluenesulfonate]
Inhibitory Rate (%) for increase in ΔAUC of blood glucose [1]: 46.6%

Compound: C=CCN1C[C@H](O)[C@@H](O)[C@H](O[C@H]2O[C@H](CO)[C@@H](O)[C@H](O)[C@H]2O)[C@H]1CO [Example 13, 4-O-alpha-D-Glucopyranosyl-N-allylmoranoline p-toluenesulfonate]
pIC50 (sucrase): 4.20
Inhibitory Rate (%) for increase in ΔAUC of blood glucose [1]: 77.1%
IC50, Maltase (maltase): 262.1 µg/mL (≈ 717 µM)

Compound: OC[C@@H]1[C@@H](O[C@H]2O[C@H](CO)[C@@H](O)[C@H](O)[C@H]2O)[C@H](O)[C@@H](O)CN1CCCCOc1ccccc1 [Example 14, 4-O-alpha-D-Glucopyranosyl-N-(4-phenoxybutyl)-moranoline]
pIC50 (sucrase): 4.84
Inhibitory Rate (%) for increase in ΔAUC of blood glucose [1]: 86.9%
IC50, Maltase (maltase): 168.6 µg/mL (≈ 356 µM)

Compound: CCCCCCCCCN1C[C@H](O)[C@@H](O)[C@H](O[C@H]2O[C@H](CO)[C@@H](O)[C@H](O)[C@H]2O)[C@H]1CO [Example 17, 4-O-alpha-D-Glucopyranosyl-N-nonylmoranoline hydrate]
pIC50 (sucrase): 4.94
Inhibitory Rate (%) for increase in ΔAUC of blood glucose [1]: 80.2%
IC50, Maltase (maltase): 77.9 µg/mL

Compound: COC(=O)CCCCN1C[C@H](O)[C@@H](O)[C@H](O[C@H]2O[C@H](CO)[C@@H](O)[C@H](O)[C@H]2O)[C@H]1CO [Example 18, 4-O-alpha-D-Glucopyranosyl-N-(4-methoxycarbonylbutyl)moranoline p-toluenesulfonate]
pIC50 (sucrase): 4.35
Inhibitory Rate (%) for increase in ΔAUC of blood glucose [1]: 47.9%
IC50, Maltase (maltase): 44.6 µg/mL (≈ 101 µM)

Compound: OC[C@@H]1[C@@H](O[C@H]2O[C@H](CO)[C@@H](O)[C@H](O)[C@H]2O)[C@H](O)[C@@H](O)CN1CCc1ccccc1 [Example 19, 4-O-alpha-D-Glucopyranosyl-N-phenethylmoranoline p-toluenesulfonate]
Inhibitory Rate (%) for increase in ΔAUC of blood glucose [1]: 54.0%

Compound: OC[C@@H]1[C@@H](O[C@H]2O[C@H](CO)[C@@H](O)[C@H](O)[C@H]2O)[C@H](O)[C@@H](O)CN1CC=Cc1ccccc1 [Example 20, 4-O-alpha-D-Glucopyranosyl-N-cinnamylmoranoline p-toluenesulfonate]
pIC50 (sucrase): 4.66
Inhibitory Rate (%) for increase in ΔAUC of blood glucose [1]: 76.8%
IC50, Maltase (maltase): 284.9 µg/mL (≈ 645 µM)

Compound: OC[C@@H]1[C@@H](O[C@H]2O[C@H](CO)[C@@H](O)[C@H](O)[C@H]2O)[C@H](O)[C@@H](O)CN1CC(O)COc1ccccc1 (stereo partly drawn) [Example 22, 4-O-alpha-D-Glucopyranosyl-N-(2-hydroxy-3-phenoxypropyl)moranoline p-toluenesulfonate hydrate]
pIC50 (sucrase): 4.47
Inhibitory Rate (%) for increase in ΔAUC of blood glucose [1]: 48.4%
IC50, Maltase (maltase): 40.9 µg/mL

Compound: Cc1ccc(CN2C[C@H](O)[C@@H](O)[C@H](O[C@H]3O[C@H](CO)[C@@H](O)[C@H](O)[C@H]3O)[C@H]2CO)cc1 [Example 25, 4-O-alpha-D-Glucopyranosyl-N-(p-methylbenzyl)moranoline p-toluenesulfonate]
pIC50 (sucrase): 4.49
Inhibitory Rate (%) for increase in ΔAUC of blood glucose [1]: 84.4%
IC50, Maltase (maltase): 69.2 µg/mL (≈ 161 µM)
